Patent US20230346961A1, “GLP-1 AND GIP RECEPTOR CO-AGONISTS” (Novo Nordisk A/S, priority 2020, published 2023)
Where two headings read alike, the source gives them in different places. Starred links: 1 amine or outer side, 2 acyl side, 3 side chain; linkers in the order of their positions; H or OH if unused. Non-standard residues stand in square brackets, D forms with d. Residues, ends and D or L forms follow the SMILES beside them. Groups on a side chain read outwards from the residue. *: point of attachment. C20 diacid = O=C(O)CCCCCCCCCCCCCCCCCCC(=O)*; γGlu = O=C(O)[C@H](CCC(=O)[*:2])N[*:1]; εLys = N[C@@H](CCCCN[*:1])C(=O)[*:2]; Trx = NC[C@H]1CC[C@H](C(=O)O)CC1; AEEA = NCCOCCOCC(=O)O; Aib = CC(C)(N)C(=O)O

Columns and labels:
human GLP-1 receptor = human GLP-1 receptor (Homo sapiens, UniProt P43220); assay: cell-based; conditions: hGLP-1R
Procedure: (§1) The in vitro functional potency is the measure of target receptor activation in a whole cell assay.
(§2) In vitro functional potency was determined by measuring the response of the target receptor in a reporter gene assay in individual cell lines. […] When the respective receptor is activated, it results in the production of cAMP, which in turn results in expression of the luciferase protein. When assay incubation is completed, luciferase substrate (luciferin) is added resulting in the enzymatic conversion of luciferin to oxyluciferin and producing bioluminescence. The luminescence is measured as the readout for the assay.
(§3) The cells lines used in these assays were BHK cells with BHKTS13 as a parent cell line. The cell lines were derived from a clone containing the CRE luciferase element and were established by further transfection with the respective receptor to obtain the relevant cell line.
(§4) The cells were cultured at 37° C. with 5% CO2 in Cell Culture Medium. They were aliquoted and stored in liquid nitrogen. The cells were kept in continuous culture and were seeded out the day before each assay.
(§5) GLP-1R and GcgR Cell Culture Medium consisted of DMEM medium with 10% FBS, 500 μg/mL G418, and 300 μg/mL hygromycin. GIPR Cell Culture Medium consisted of DMEM medium with 10% FBS, 400 μg/mL G418, and 300 μg/mL hygromycin. Assay Buffer consisted of DMEM w/o phenol red, 10 mM Hepes, 1×Glutamax, 1% ovalbumin, and 0.1% Pluronic F-68 with the addition of HSA at twice the final assay concentration.
(§6) • 1) Cells were plated at 5000 cells/well and incubated overnight in the assay plate. • 2) Cells were washed once in DPBS. • 3) Stocks of the test compounds and reference compounds in concentrations ranging from 100-300 μM were diluted 1:150 in Assay Buffer. Compounds were then diluted 1:10 in column 1 of a 96 deep well dilution plate and then carried across the row creating a 3.5 fold, 12 point dilution curve. • 4) Assay Buffer (50 μl aliquot) with or without HSA was added to each well in the assay plate. • 5) A 50 μl aliquot of compound or blank was transferred from the dilution plate to the assay plate containing the Assay Buffer with or without HSA. • 6) The assay plate was incubated for 3 h in a 5% CO2 incubator at 37° C. 7) The cells were washed once with DPBS. • 8) A 100 μl aliquot of DPBS was added to each well of the assay plate. • 9) A 100 μl aliquot of steadylite plus reagent (light sensitive) was added to each well of the assay plate. • 10) Each assay plate was covered with aluminum foil to protect it from light and shaken at 250 RPM for 30 min at room temperature. • 11) Each assay plate was read in a microtiter plate reader.
(§7) The data from the microtiter plate reader was first regressed in an Excel in order to calculate the x-axis, log scale concentrations based on the individual test compound's stock concentration and the dilutions of the assay. […] The software performs a non-linear regression (log(agonist) vs response). A minimum of two replicates was measured for each sample. The reported values are averages of the replicates.

mouse GIP receptor = molecular target: T1, mouse GIP receptor (Mus musculus, UniProt Q0P543); assay: cell-based
T1 sequence (Q0P543 19-460): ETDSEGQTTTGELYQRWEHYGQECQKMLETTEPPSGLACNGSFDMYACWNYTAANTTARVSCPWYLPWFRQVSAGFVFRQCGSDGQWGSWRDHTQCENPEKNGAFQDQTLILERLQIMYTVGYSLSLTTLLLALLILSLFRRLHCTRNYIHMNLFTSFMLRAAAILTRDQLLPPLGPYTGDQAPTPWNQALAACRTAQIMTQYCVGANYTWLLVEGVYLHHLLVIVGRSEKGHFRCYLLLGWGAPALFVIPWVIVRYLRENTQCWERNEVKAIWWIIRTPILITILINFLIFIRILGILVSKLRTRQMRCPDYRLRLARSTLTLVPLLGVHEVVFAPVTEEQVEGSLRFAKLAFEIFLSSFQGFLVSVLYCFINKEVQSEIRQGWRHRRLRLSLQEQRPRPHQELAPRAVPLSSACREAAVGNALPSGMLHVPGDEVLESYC
Procedure: as §1, §2, §3, §4, §5, §6, §7

human glucagon receptor = human glucagon receptor (Homo sapiens, UniProt P47871); assay: cell-based
Procedure: as §1, §2, §3, §4, §5, §6, §7

mouse GLP-1 receptor = molecular target: T2, mouse GLP-1 receptor (Mus musculus, UniProt O35659)
T2 sequence (O35659 22-463): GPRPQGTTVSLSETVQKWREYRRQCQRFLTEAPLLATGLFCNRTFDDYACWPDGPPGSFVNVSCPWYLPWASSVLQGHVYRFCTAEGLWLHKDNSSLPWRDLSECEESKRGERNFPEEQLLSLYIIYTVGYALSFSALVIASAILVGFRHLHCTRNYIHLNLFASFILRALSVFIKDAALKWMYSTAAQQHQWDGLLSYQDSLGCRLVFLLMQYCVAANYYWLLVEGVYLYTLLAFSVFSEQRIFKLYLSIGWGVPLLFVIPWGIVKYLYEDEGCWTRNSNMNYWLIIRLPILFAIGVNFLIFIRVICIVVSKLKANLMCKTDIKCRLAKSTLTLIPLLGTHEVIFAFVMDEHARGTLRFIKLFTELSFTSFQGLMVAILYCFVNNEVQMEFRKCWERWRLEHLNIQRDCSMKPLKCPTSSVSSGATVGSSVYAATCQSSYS

[1] = Pharmacokinetic study in minipigs (terminal half-life after i.v. administration); format: in vivo; conditions: female, Göttingen, minipig, iv
Procedure: The purpose of this example is to determine the half-life in vivo of the derivatives of the present invention after i.v. administration to minipigs, i.e. the prolongation of their time in the body and thereby their time of action. This is done in a pharmacokinetic (PK) study, where the terminal half-life of the derivative in question is determined. By terminal half-life is generally meant the period of time it takes to […] certain plasma concentration, measured after the initial distribution phase. Female Göttingen minipigs were obtained from Ellegaard Göttingen Minipigs (Dalmose, Denmark) approximately 7-14 months of age and weighing from approximately 16-35 kg were used in the studies. The minipigs were housed individually and fed restrictedly once daily with SDS minipig diet (Special Diets Services, Essex, UK). After at 3 weeks of acclimatisation two permanent central venous catheters were implanted in vena cava caudalis in each animal. The animals were allowed 1 week recovery after the surgery, and were then used for repeated pharmacokinetic studies with a suitable wash-out period between successive derivative dosing. The animals were fasted for approximately 18 hours before dosing and from 0 to 4 hours after dosing, but had adlibitum access to water during the whole period. […] Blood samples (for example 0.8 mL) were collected in 8 mM EDTA buffer and then centrifuged at 4° C. and 1942 g for 10 minutes. Plasma was pipetted into Micronic tubes on dry ice and kept at -20° C. until analysed for plasma concentration of the compounds using ELISA, or a similar antibody-based assay, or LCMS. […] (Pharsight Inc., Mountain View, CA, USA), and the resulting terminal half-lives (harmonic mean) determined.

human GLP-1 receptor, sequence (P43220 24-463): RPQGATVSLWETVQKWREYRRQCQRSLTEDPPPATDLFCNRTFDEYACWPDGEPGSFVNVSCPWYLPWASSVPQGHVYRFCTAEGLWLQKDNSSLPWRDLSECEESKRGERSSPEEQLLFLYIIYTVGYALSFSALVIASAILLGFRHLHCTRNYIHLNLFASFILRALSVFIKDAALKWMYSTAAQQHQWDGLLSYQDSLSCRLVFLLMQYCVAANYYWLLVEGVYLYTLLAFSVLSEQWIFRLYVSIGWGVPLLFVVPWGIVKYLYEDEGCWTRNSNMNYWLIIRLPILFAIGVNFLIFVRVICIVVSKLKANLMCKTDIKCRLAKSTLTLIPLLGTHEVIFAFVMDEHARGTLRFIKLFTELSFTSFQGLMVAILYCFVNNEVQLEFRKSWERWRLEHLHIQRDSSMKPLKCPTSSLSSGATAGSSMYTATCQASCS
human glucagon receptor, sequence (P47871 26-477): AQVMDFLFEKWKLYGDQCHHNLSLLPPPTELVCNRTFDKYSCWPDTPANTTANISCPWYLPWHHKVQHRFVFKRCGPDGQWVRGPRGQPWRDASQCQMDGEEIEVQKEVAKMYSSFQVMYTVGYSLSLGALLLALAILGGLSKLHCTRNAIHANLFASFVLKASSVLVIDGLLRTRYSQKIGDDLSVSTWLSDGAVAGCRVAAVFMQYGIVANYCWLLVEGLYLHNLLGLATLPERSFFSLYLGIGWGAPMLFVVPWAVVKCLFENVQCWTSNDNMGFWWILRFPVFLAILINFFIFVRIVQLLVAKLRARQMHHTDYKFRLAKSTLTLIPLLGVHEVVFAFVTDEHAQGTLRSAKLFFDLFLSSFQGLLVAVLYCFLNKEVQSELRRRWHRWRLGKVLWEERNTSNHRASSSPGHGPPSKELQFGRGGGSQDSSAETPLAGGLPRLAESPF

Work on CC[C@H](C)[C@H](NC(=O)[C@H](CO)NC(=O)[C@H](Cc1ccc(O)cc1)NC(=O)[C@H](CC(=O)O)NC(=O)[C@H](CO)NC(=O)[C@@H](NC(=O)[C@H](Cc1ccccc1)NC(=O)[C@@H](NC(=O)CNC(=O)[C@H](CCC(=O)O)NC(=O)C(C)(C)NC(=O)[C@@H](N)Cc1ccc(O)cc1)[C@@H](C)O)[C@@H](C)O)C(=O)N[C@@H](Cc1ccc(O)cc1)C(=O)N[C@@H](CC(C)C)C(=O)N[C@@H](CCC(=O)O)C(=O)N[C@@H](CCCCNC(=O)COCCOCCNC(=O)COCCOCCNC(=O)CC[C@H](NC(=O)[C@H]1CC[C@H](CNC(=O)CCCCCCCCCCCCCCCCCCC(=O)O)CC1)C(=O)O)C(=O)N[C@@H](CCC(N)=O)C(=O)N[C@@H](C)C(=O)N[C@@H](C)C(=O)NC(C)(C)C(=O)N[C@@H](CCC(=O)O)C(=O)N[C@@H](Cc1ccccc1)C(=O)N[C@H](C(=O)N[C@@H](CC(N)=O)C(=O)N[C@@H](Cc1c[nH]c2ccccc12)C(=O)N[C@@H](CC(C)C)C(=O)N[C@@H](CC(C)C)C(=O)N[C@@H](C)C(=O)NCC(=O)NCC(=O)N1CCC[C@H]1C(=O)N[C@@H](CO)C(=O)N[C@@H](CO)C(=O)NCC(=O)N[C@@H](C)C(=O)N1CCC[C@H]1C(=O)N1CCC[C@H]1C(=O)N1CCC[C@H]1C(=O)N[C@@H](CO)C(N)=O)C(C)C [Compound 21] (H-Y[Aib]EGTFTSDYSIYLEK([AEEA-AEEA-γGlu-Trx-C20 diacid])QAA[Aib]EFVNWLLAGGPSSGAPPPS-NH2; N-terminus assumed) yielded an EC50 (human GLP-1 receptor; CRE Luc 0% HSA EC50, 0% HSA) of 0.003 nM, an EC50 (human GLP-1 receptor; CRE Luc 1% HSA EC50, 1% HSA) of 0.465 nM and an EC50 (mouse GIP receptor) of 0.0366 nM. It also gave an EC50 (human glucagon receptor) greater than 10 nM, an EC50 (mouse GLP-1 receptor) of 0.0026 nM and a half-life ([1]; in vivo) of 62 h.
For CC[C@H](C)[C@H](NC(=O)[C@H](CO)NC(=O)[C@H](Cc1ccc(O)cc1)NC(=O)[C@H](CC(=O)O)NC(=O)[C@H](CO)NC(=O)[C@@H](NC(=O)[C@H](Cc1ccccc1)NC(=O)[C@@H](NC(=O)CNC(=O)[C@H](CCC(=O)O)NC(=O)C(C)(C)NC(=O)[C@@H](N)Cc1ccc(O)cc1)[C@@H](C)O)[C@@H](C)O)C(=O)N[C@@H](Cc1ccc(O)cc1)C(=O)N[C@@H](CC(C)C)C(=O)N[C@@H](CCC(=O)O)C(=O)N[C@@H](CCCCN)C(=O)N[C@@H](CCCCNC(=O)COCCOCCNC(=O)COCCOCCNC(=O)CC[C@H](NC(=O)[C@H]1CC[C@H](CNC(=O)CCCCCCCCCCCCCCCCCCC(=O)O)CC1)C(=O)O)C(=O)N[C@@H](C)C(=O)N[C@@H](C)C(=O)NC(C)(C)C(=O)N[C@@H](CCC(=O)O)C(=O)N[C@@H](Cc1ccccc1)C(=O)N[C@H](C(=O)N[C@@H](CC(N)=O)C(=O)N[C@@H](Cc1c[nH]c2ccccc12)C(=O)N[C@@H](CC(C)C)C(=O)N[C@@H](CC(C)C)C(=O)N[C@@H](C)C(=O)NCC(=O)NCC(=O)N1CCC[C@H]1C(=O)N[C@@H](CO)C(=O)N[C@@H](CO)C(=O)NCC(=O)N[C@@H](C)C(=O)N1CCC[C@H]1C(=O)N1CCC[C@H]1C(=O)N1CCC[C@H]1C(=O)N[C@@H](CO)C(N)=O)C(C)C [Compound 22] (H-Y[Aib]EGTFTSDYSIYLEKK([AEEA-AEEA-γGlu-Trx-C20 diacid])AA[Aib]EFVNWLLAGGPSSGAPPPS-NH2; N-terminus assumed), the EC50 (human GLP-1 receptor; CRE Luc 0% HSA EC50, 0% HSA) was 0.0033 nM, the EC50 (human GLP-1 receptor; CRE Luc 1% HSA EC50, 1% HSA) was 1.13 nM and the EC50 (mouse GIP receptor) was 0.124 nM. For the same compound, the EC50 (human glucagon receptor) was greater than 10 nM, the EC50 (mouse GLP-1 receptor) was 0.0021 nM and the half-life ([1]; in vivo) was 95 h.
For CC[C@H](C)[C@H](NC(=O)[C@H](CO)NC(=O)[C@H](Cc1ccc(O)cc1)NC(=O)[C@H](CC(=O)O)NC(=O)[C@H](CO)NC(=O)[C@@H](NC(=O)[C@H](Cc1ccccc1)NC(=O)[C@@H](NC(=O)CNC(=O)[C@H](CCC(=O)O)NC(=O)C(C)(C)NC(=O)[C@@H](N)Cc1ccc(O)cc1)[C@@H](C)O)[C@@H](C)O)C(=O)N[C@@H](Cc1ccc(O)cc1)C(=O)N[C@@H](CC(C)C)C(=O)N[C@@H](CCC(=O)O)C(=O)N[C@@H](CCCCNC(=O)[C@@H](N)CCCCNC(=O)[C@@H](N)CCCCNC(=O)CC[C@H](NC(=O)CCCCCCCCCCCCCCCCCCC(=O)O)C(=O)O)C(=O)N[C@@H](CCC(N)=O)C(=O)N[C@@H](C)C(=O)N[C@@H](C)C(=O)NC(C)(C)C(=O)N[C@@H](CCC(=O)O)C(=O)N[C@@H](Cc1ccccc1)C(=O)N[C@H](C(=O)N[C@@H](CC(N)=O)C(=O)N[C@@H](Cc1c[nH]c2ccccc12)C(=O)N[C@@H](CC(C)C)C(=O)N[C@@H](CC(C)C)C(=O)N[C@@H](C)C(=O)NCC(=O)NCC(=O)N1CCC[C@H]1C(=O)N[C@@H](CO)C(=O)N[C@@H](CO)C(=O)NCC(=O)N[C@@H](C)C(=O)N1CCC[C@H]1C(=O)N1CCC[C@H]1C(=O)N1CCC[C@H]1C(=O)N[C@@H](CO)C(N)=O)C(C)C [Compound 28] (H-Y[Aib]EGTFTSDYSIYLEK([εLys-εLys-γGlu-C20 diacid])QAA[Aib]EFVNWLLAGGPSSGAPPPS-NH2; N-terminus assumed), the EC50 (human GLP-1 receptor; CRE Luc 0% HSA EC50, 0% HSA) was 0.005 nM, the EC50 (human GLP-1 receptor; CRE Luc 1% HSA EC50, 1% HSA) was 0.356 nM and the EC50 (mouse GIP receptor) was 0.026 nM. For the same compound, the EC50 (human glucagon receptor) was greater than 10 nM, the EC50 (mouse GLP-1 receptor) was 0.0023 nM and the half-life ([1]; plasma, minipigs, i.v. administration, harmonic mean, read-out: Terminal half-life t1/2 (converted)) was 111 h.
